# Measured values as given in publication PMC9848300, “Discovery of novel enasidenib analogues targeting inhibition of mutant isocitrate dehydrogenase 2 as antileukaemic agents” (Journal of Enzyme Inhibition and Medicinal Chemistry, 2023).
# Like-named read-outs stand apart in the source and are kept apart here.
# Columns and labels:
# [1] = system: UO-31; experiment: NCI 60 antitumor screening (single dose / five doses); assay type: cell-based; conditions: Homo sapiens
# [2] = system: RPMI-8226; experiment: as above; assay type: cell-based; conditions: Homo sapiens
# [3] = system: MOLT-4; experiment: as above; assay type: cell-based; conditions: Homo sapiens
# [4] = system: HT29; experiment: as above; assay type: cell-based, human; conditions: Homo sapiens
# [5] = system: HCT-15; experiment: as above; assay type: cell-based; conditions: Homo sapiens
# [6] = system: SF-539; experiment: as above; assay type: cell-based; conditions: Homo sapiens
# [7] = system: MDA-MB-231/ATCC; experiment: as above; assay type: cell-based; conditions: Homo sapiens
# [8] = system: HL-60(TB); experiment: as above; assay type: cell-based; conditions: Homo sapiens
# [9] = system: A498; experiment: as above; assay type: cell-based; conditions: Homo sapiens
# [10] = system: UACC-62; experiment: as above; assay type: cell-based; conditions: Homo sapiens
# [11] = system: SNB-75; experiment: as above; assay type: cell-based; conditions: Homo sapiens
# [12] = system: NCI-H23; experiment: NCI 60 antitumor screening (single dose); assay type: cell-based; conditions: Homo sapiens; NCI-H23 (non-small cell lung cancer), single dose 10 μM; read-out: Growth inhibition percentage (GI %)
# Summary of the method: (§1)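 At one concentration (10 μM), compounds are run in triplicate on 60 human cancer lines per the NCI method. Treated-cell growth is recorded as G%. Reported inhibition equals 100 − G%.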
# [13] = system: MCF7; experiment: NCI 60 antitumor screening (single dose); assay type: cell-based; conditions: Homo sapiens; MCF7 (breast cancer), single dose 10 μM; read-out: Growth inhibition percentage (GI %)
# Summary of the method: (§2)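 NCI-60 one-dose screen. Dose: 10 μM. Lines: 60 human tumour lines, nine tissue types. Output: GI% = 100 − G%.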
# [14] = system: M14; experiment: NCI 60 antitumor screening (single dose); assay type: cell-based; conditions: Homo sapiens; M14 (melanoma), single dose 10 μM; read-out: Growth inhibition percentage (GI %)
# Summary of the method: as §2
# [15] = system: NCI-H322M; experiment: NCI 60 antitumor screening (single dose); assay type: cell-based; conditions: Homo sapiens; NCI-H322M (non-small cell lung cancer), single dose 10 μM; read-out: Growth inhibition percentage (GI %)
# Summary of the method: as §2
# [16] = system: SF-268; experiment: NCI 60 antitumor screening (single dose); assay type: cell-based; conditions: Homo sapiens; SF-268 (CNS cancer), single dose 10 μM; read-out: Growth inhibition percentage (GI %)
# Summary of the method: as §1
# [17] = system: A549/ATCC; experiment: NCI 60 antitumor screening (single dose); assay type: cell-based; conditions: Homo sapiens; A549/ATCC (non-small cell lung cancer), single dose 10 μM; read-out: Growth inhibition percentage (GI %)
# Summary of the method: as §2
# [18] = system: CAKI-1; experiment: NCI 60 antitumor screening (single dose); assay type: cell-based; conditions: Homo sapiens; CAKI-1 (renal cancer), single dose 10 μM; read-out: Growth inhibition percentage (GI %)
# Summary of the method: as §2
# [19] = system: NCI-H522; experiment: NCI 60 antitumor screening (single dose); assay type: cell-based; conditions: Homo sapiens; NCI-H522 (non-small cell lung cancer), single dose 10 μM; read-out: Growth inhibition percentage (GI %)
# Summary of the method: as §1
# [20] = system: SW-620; experiment: NCI 60 antitumor screening (single dose / five doses); assay type: cell-based, human; conditions: Homo sapiens
# [21] = system: 60 human subpanel cancer cell lines; experiment: NCI 60 antitumor screening, mean over the panel (single dose); assay type: cell-based; conditions: mean over 60 cancer cell lines, single dose 10 μM
# Summary of the method: as §1
# [22] = system: 786-0; experiment: NCI 60 antitumor screening (single dose / five doses); assay type: cell-based; conditions: Homo sapiens
# [23] = system: RXF 393; experiment: as above; assay type: cell-based; conditions: Homo sapiens
# [24] = system: CCRF-CEM; experiment: as above; assay type: cell-based; conditions: Homo sapiens, read-out: Growth inhibition percentage (GI %)
# [25] = system: BT-549; experiment: as above; assay type: cell-based; conditions: Homo sapiens
# [26] = system: MALME-3M; experiment: as above; assay type: cell-based; conditions: Homo sapiens, read-out: Growth inhibition percentage (GI %)
# [27] = system: MDA-MB-435; experiment: as above; assay type: cell-based; conditions: Homo sapiens
# [28] = system: SK-MEL-5; experiment: as above; assay type: cell-based; conditions: Homo sapiens
smiles,measurement,setting,value
"Clc1cccc(/C=N/Nc2nc(N/N=C/c3cccc(Cl)c3Cl)nc(N3CCCCC3)n2)c1Cl [compound 7h, 2,4-Bis[(E)-2-[(2,3-Dichlorophenyl)methylidene]hydrazin-1-yl]-6-(piperidin-1-yl)-1,3,5-triazine]",inhibition at 10 µM,"[1]; UO-31 (renal cancer), single dose 10 μM, read-out: Growth inhibition percentage (GI %)",6.76%
same,inhibition at 10 µM,"[2]; RPMI-8226 (leukaemia), single dose 10 μM, read-out: Growth inhibition percentage (GI %)",6.61%
same,inhibition at 10 µM,"[3]; MOLT-4 (leukaemia), single dose 10 μM, read-out: Growth inhibition percentage (GI %)",15.7%
same,inhibition at 10 µM,"[4]; HT-29, HT29 (colon cancer), single dose 10 μM, read-out: Growth inhibition percentage (GI %)",15.7%
same,inhibition at 10 µM,"[5]; HCT-15 (colon cancer), single dose 10 μM, read-out: Growth inhibition percentage (GI %)",34.5%
same,inhibition at 10 µM,"[6]; SF-539 (CNS cancer), single dose 10 μM, read-out: Growth inhibition percentage (GI %)",15.7%
same,inhibition at 10 µM,"[7]; MDA-MB-231/ATCC (breast cancer), single dose 10 μM, read-out: Growth inhibition percentage (GI %)",15.8%
same,inhibition at 10 µM,"[8]; HL-60(TB) (leukaemia), single dose 10 μM, read-out: Growth inhibition percentage (GI %)",-6.32%
same,inhibition at 10 µM,"[9]; A498 (renal cancer), single dose 10 μM, read-out: Growth inhibition percentage (GI %)",7.46%
same,inhibition at 10 µM,"[10]; UACC-62 (melanoma), single dose 10 μM, read-out: Growth inhibition percentage (GI %)",31.7%
same,inhibition at 10 µM,"[11]; SNB-75 (CNS cancer), single dose 10 μM, read-out: Growth inhibition percentage (GI %)",-4.05%
same,inhibition at 10 µM,[12],0.28%
same,inhibition at 10 µM,[13],28.8%
same,inhibition at 10 µM,[14],31.2%
same,inhibition at 10 µM,[15],10%
same,inhibition at 10 µM,[16],13.6%
same,inhibition at 10 µM,[17],44.4%
same,inhibition at 10 µM,[18],15.9%
same,inhibition at 10 µM,[19],23.4%
same,inhibition at 10 µM,"[20]; SW-620 (colon cancer), single dose 10 μM, read-out: Growth inhibition percentage (GI %)",57.4%
same,Mean GI %,[21],18.81%
same,inhibition at 10 µM,"[22]; 786-0, 786-0 (renal cancer), single dose 10 μM, read-out: Growth inhibition percentage (GI %)",-1.71%
same,inhibition at 10 µM,"[23]; RXF 393 (renal cancer), single dose 10 μM, read-out: Growth inhibition percentage (GI %)",-11.8%
same,inhibition at 10 µM,"[24]; CCRF-CEM (leukaemia), single dose 10 μM",28.7%
same,inhibition at 10 µM,"[25]; BT-549 (breast cancer), single dose 10 μM, read-out: Growth inhibition percentage (GI %)",2.7%
same,inhibition at 10 µM,"[26]; MALME-3M (melanoma), single dose 10 μM",7.49%
same,inhibition at 10 µM,"[27]; MDA-MB-435 (melanoma), single dose 10 μM, read-out: Growth inhibition percentage (GI %)",-13.8%
same,inhibition at 10 µM,"[28]; SK-MEL-5 (melanoma), single dose 10 μM, read-out: Growth inhibition percentage (GI %)",0.02%
"O=[N+]([O-])c1cc(/C=N/Nc2nc(N/N=C/c3ccc(Cl)c([N+](=O)[O-])c3)nc(N3CCCCC3)n2)ccc1Cl [compound 7i, 2,4-Bis[(E)-2-[(4-Chloro-3-nitrophenyl)methylidene]hydrazin-1-yl]-6-(piperidin-1-yl)-1,3,5-triazine]",inhibition at 10 µM,"[1]; UO-31, read-out: Growth inhibition percentage (GI %)",52.5%
same,inhibition at 10 µM,"[2]; RPMI-8226, read-out: Growth inhibition percentage (GI %)",81.7%
same,inhibition at 10 µM,"[3]; MOLT-4, read-out: Growth inhibition percentage (GI %)",57.7%
same,inhibition at 10 µM,"[4]; HT-29, read-out: Growth inhibition percentage (GI %)",92.6%
same,inhibition at 10 µM,"[5]; HCT-15, read-out: Growth inhibition percentage (GI %)",50.3%
same,inhibition at 10 µM,"[6]; SF-539, read-out: Growth inhibition percentage (GI %)",63.7%
same,inhibition at 10 µM,"[7]; MDA-MB-231, read-out: Growth inhibition percentage (GI %)",51.7%
same,inhibition at 10 µM,"[8]; HL-60, read-out: Growth inhibition percentage (GI %)",58.1%
same,inhibition at 10 µM,"[9]; A498, read-out: Growth inhibition percentage (GI %)",-8.06%
same,inhibition at 10 µM,"[10]; UACC-62, read-out: Growth inhibition percentage (GI %)",34%
same,inhibition at 10 µM,"[11]; SNB-75, read-out: Growth inhibition percentage (GI %)",-36.1%
same,inhibition at 10 µM,[12],18.2%
same,inhibition at 10 µM,[13],99.1%
same,inhibition at 10 µM,[14],7.7%
same,inhibition at 10 µM,[15],28.8%
same,inhibition at 10 µM,[16],35.1%
same,inhibition at 10 µM,[17],-11.2%
same,inhibition at 10 µM,[18],27.6%
same,inhibition at 10 µM,[19],48.1%
same,inhibition at 10 µM,"[20]; SW-620, read-out: Growth inhibition percentage (GI %)",36.3%
same,Mean GI %,[21],37.38%
same,inhibition at 10 µM,"[22]; 786-0, read-out: Growth inhibition percentage (GI %)",-8.84%
same,inhibition at 10 µM,"[23]; RXF 393, read-out: Growth inhibition percentage (GI %)",0.13%
same,inhibition at 10 µM,[24]; CCRF-CEM,38.7%
same,inhibition at 10 µM,"[25]; BT-549, read-out: Growth inhibition percentage (GI %)",2.15%
same,inhibition at 10 µM,[26]; Malme-3M,-1.47%
same,inhibition at 10 µM,"[27]; MDA-MB-435, read-out: Growth inhibition percentage (GI %)",19.3%
same,inhibition at 10 µM,"[28]; SK-MEL-5, read-out: Growth inhibition percentage (GI %)",48.9%
